According to ChEMBL document CHEMBL1201862, “PubChem BioAssay data set” (2004):
Active and inactive are the calls of the source.

What was measured:
Protein Wnt-3a = Protein Wnt-3a (Mus musculus, UniProt P27467); test: Wnt3a-driven reporter signaling inhibition, dose response, selectivity assay for Gli-SUFU antagonist project, Wnt-LIGHT cells, luminescence (AID 651570); assay type: functional; conditions: read-out: IC50_Mean;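 note: Wnt-LIGHT reporter cells stimulated with conditioned medium from Wnt3a-producing cells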
Protein Wnt-3a, sequence (P27467 whole entry): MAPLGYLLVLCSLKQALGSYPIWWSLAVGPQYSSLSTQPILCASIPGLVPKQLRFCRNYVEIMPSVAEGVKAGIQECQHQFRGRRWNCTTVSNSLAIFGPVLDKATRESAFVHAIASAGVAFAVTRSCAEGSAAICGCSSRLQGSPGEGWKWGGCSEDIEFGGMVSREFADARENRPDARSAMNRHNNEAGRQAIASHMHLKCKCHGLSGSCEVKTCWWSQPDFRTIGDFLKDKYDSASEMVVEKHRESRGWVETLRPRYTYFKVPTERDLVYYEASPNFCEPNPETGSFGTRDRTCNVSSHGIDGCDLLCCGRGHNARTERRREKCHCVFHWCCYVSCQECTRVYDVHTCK

[1] = StAR promoter reporter inhibition counter-screen, dose response, counter-screen for LRH-1 inverse agonist project, cell-based, luminescence, luciferase reporter (AID 651969); assay type: functional
[2] = target: T1, Apoptotic protease-activating factor 1 (Homo sapiens, UniProt O14727); test: SAR analysis of small molecule Activators of Apaf-1 in a Fluorescent assay.; assay type: functional; conditions: read-out: EC50_Mean;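 note: caspase-3 cleavage of fluorogenic Rh110 DEVD substrate downstream of apoptosome activation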
T1 sequence (O14727 whole entry): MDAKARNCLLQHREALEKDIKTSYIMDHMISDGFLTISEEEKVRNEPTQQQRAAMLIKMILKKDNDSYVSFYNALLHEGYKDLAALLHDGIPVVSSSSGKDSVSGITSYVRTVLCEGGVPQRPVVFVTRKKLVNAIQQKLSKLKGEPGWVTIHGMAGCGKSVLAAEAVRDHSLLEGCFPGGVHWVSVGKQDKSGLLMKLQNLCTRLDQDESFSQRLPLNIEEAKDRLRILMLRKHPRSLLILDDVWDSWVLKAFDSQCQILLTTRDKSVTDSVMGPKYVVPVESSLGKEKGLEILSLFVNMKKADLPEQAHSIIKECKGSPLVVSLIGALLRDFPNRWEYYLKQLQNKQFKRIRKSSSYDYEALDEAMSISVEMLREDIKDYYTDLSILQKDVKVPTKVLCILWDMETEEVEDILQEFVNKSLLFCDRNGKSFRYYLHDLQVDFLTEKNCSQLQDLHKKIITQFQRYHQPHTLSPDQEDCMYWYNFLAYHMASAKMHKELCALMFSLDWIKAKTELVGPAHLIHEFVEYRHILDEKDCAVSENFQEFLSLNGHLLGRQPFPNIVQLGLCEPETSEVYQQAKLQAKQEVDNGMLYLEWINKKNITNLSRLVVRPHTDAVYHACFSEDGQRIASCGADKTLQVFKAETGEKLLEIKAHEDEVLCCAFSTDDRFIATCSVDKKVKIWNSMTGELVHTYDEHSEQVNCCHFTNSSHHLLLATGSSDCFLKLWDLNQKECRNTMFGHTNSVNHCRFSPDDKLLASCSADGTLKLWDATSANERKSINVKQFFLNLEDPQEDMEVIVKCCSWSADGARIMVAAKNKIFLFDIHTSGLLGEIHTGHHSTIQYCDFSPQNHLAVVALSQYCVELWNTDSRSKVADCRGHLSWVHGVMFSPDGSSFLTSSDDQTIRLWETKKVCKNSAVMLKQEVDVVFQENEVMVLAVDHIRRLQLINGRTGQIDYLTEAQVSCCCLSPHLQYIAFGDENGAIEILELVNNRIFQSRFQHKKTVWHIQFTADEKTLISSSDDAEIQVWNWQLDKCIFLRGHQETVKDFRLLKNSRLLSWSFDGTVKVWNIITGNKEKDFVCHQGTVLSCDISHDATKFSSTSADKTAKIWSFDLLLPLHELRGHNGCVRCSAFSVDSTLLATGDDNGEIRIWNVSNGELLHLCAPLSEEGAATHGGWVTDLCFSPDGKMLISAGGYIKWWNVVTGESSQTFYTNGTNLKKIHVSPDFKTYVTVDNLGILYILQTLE

[3] = target: T2, Short transient receptor potential channel 4 (Mus musculus, UniProt Q9QUQ5); test: mouse TRPC4 channel inhibitors, dose response, cell-based, HEK293 TRPC4/mu-opioid, Fluo-4 calcium (AID 434942); assay type: functional;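 note: potency of inhibitors blocking the TRPC4 calcium response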
T2 sequence (Q9QUQ5 whole entry): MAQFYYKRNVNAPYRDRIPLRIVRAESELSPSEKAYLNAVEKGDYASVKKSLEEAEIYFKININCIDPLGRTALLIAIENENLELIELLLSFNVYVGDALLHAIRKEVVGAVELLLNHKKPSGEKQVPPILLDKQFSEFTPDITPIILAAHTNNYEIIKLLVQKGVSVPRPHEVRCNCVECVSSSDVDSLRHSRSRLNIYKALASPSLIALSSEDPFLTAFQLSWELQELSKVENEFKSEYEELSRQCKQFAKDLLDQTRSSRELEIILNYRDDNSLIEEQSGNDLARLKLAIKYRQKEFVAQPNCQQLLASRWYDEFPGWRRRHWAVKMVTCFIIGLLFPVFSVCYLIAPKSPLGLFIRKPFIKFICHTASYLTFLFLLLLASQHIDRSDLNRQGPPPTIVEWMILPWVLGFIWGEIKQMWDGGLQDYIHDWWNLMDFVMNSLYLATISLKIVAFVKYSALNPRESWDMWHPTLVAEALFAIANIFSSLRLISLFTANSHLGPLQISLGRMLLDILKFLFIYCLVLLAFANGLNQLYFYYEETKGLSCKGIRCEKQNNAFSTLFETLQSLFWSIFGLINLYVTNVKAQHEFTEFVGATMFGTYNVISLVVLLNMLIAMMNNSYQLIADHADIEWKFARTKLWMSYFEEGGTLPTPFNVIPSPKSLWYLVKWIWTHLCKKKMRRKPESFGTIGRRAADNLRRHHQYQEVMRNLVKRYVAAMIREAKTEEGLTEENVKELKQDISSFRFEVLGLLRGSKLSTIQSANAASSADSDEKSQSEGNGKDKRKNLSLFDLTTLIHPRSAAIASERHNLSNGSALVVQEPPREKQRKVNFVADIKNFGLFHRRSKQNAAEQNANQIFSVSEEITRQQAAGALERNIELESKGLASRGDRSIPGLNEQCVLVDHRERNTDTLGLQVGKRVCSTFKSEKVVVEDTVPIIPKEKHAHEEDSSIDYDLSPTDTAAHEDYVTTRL

[4] = target: T3, Corticotropin-releasing factor receptor 2/Corticotropin-releasing factor-binding protein (Homo sapiens, UniProt P24387+Q13324); test: Dose Response confirmation of uHTS hits for small molecule antagonists of the CRF-binding protein and CRF-R2 receptor complex.; assay type: functional; conditions: read-out: IC50_Mean
T3 sequence (Q13324 whole entry): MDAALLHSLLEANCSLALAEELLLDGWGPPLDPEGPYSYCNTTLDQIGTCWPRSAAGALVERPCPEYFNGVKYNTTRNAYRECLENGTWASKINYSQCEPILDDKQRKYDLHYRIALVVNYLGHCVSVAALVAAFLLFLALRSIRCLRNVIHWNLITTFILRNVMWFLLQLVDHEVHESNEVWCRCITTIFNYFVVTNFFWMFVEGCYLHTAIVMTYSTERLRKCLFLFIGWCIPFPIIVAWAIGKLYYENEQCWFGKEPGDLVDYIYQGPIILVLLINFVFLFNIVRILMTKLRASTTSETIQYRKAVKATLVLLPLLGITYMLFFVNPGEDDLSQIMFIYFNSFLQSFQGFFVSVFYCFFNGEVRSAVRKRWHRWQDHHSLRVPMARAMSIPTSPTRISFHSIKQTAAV
T3 sequence (P24387 whole entry): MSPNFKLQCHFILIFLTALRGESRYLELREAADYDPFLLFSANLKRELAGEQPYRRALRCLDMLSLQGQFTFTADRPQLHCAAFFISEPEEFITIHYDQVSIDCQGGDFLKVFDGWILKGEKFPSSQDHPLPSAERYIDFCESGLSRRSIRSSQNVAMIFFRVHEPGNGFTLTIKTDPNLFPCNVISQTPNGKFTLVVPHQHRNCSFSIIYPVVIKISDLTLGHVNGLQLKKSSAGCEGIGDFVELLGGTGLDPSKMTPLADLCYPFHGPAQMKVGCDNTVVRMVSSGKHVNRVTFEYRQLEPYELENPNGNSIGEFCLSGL

[5] = target: T3, Corticotropin-releasing factor receptor 2/Corticotropin-releasing factor-binding protein; test: activators of CRF receptor 2 with binding protein – uHTS hits, confirmation (AID 602473); assay type: functional; conditions: read-out: EC50_Mean
[6] = CRF-BP/CRF-R2 complex antagonists, dose response, cell-based, uHTS hits, 384-well (AID 651639); assay type: functional, Homo sapiens; conditions: read-out: IC50_Mean
[7] = NIH-3T3 fibroblast cytotoxicity, dose response, cytotoxicity control, cell-based, fluorescence, Alamar Blue, secondary assay (AID 2327); assay type: functional;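 note: NIH-3T3 mouse fibroblasts cultured with fluconazole at 8 µg/mL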
[8] = C. albicans growth with fluconazole, confirmation, fluorescence, retest (AID 2467); assay type: functional, cell-based
[9] = target: T4, Microphthalmia-associated transcription factor (Homo sapiens, UniProt O75030); test: TRPM1 promoter luciferase signal decrease, dose response, MITF inhibitor project, cell-based, SK-MEL-5, cherry-picked, set 3 (AID 493073); assay type: functional
T4 sequence (O75030 whole entry): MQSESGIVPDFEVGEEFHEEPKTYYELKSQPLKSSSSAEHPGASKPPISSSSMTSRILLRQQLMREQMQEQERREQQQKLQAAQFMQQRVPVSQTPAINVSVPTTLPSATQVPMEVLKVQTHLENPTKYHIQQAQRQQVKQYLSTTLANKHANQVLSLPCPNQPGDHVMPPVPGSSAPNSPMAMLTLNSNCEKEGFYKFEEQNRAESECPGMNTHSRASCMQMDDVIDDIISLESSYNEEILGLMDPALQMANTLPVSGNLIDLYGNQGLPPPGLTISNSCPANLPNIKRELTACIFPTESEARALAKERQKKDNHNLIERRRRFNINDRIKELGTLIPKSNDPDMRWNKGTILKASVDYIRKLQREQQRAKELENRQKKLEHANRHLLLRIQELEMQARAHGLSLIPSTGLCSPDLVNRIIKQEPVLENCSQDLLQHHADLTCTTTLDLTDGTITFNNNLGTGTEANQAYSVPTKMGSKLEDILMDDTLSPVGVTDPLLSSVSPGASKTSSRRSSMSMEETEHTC

INS1 = test: beta cell apoptosis inhibitors, cytokine rescue, dose response, luminescence, retest (AID 449756); assay type: functional, cell-based; conditions: Rattus norvegicus;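 note: cell death triggered by IL-1 beta plus TNF-alpha plus IFN-gamma mixture; protective hits raise ATP signal compared with cytokine alone wells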
[10] = target: T5, DNA repair protein RAD52 homolog (Homo sapiens, UniProt P43351); assay type: functional, biochemical
T5 sequence (P43351 whole entry): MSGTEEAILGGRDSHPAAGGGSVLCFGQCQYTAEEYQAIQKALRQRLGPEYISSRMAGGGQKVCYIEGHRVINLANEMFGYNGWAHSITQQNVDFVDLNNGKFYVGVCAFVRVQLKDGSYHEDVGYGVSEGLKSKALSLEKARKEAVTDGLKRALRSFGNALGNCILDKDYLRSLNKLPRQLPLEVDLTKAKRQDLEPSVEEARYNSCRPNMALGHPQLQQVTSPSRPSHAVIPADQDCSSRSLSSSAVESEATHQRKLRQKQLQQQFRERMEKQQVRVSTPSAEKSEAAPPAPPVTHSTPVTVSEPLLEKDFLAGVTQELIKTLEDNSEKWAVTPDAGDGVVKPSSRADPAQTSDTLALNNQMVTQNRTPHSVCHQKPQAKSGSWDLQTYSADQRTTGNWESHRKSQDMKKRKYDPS

[11] = target: Photoreceptor-specific nuclear receptor (Homo sapiens, UniProt Q9Y5X4); assay type: functional, cell-based;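 note: CHO-S cells with Gal4-NCOR and VP16-NR2E3 two-hybrid luciferase reporter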
Photoreceptor-specific nuclear receptor, sequence (Q9Y5X4 whole entry, the tested form may be a part): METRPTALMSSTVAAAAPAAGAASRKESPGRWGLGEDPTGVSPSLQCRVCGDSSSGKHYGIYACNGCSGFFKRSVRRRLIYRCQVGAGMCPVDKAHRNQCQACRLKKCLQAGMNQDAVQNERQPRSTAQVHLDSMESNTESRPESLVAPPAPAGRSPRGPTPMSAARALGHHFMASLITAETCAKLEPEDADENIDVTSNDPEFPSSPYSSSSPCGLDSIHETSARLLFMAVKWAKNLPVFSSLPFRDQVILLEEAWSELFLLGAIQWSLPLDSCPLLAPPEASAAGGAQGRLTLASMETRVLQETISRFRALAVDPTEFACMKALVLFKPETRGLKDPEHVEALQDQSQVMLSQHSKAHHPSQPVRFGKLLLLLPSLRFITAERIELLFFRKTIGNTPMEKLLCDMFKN

Cc1nnsc1C(=O)NC1CCCc2c1cnn2-c1ccc(F)cc1F (stereo not given)
IC50 (Protein Wnt-3a): 3.91 µM (active)

Cc1cccc(NC(=O)CSc2nc(O)c3c[nH]nc3n2)c1C
IC50 [1]: 35.9 µM (inactive)

Cc1ccc(O)c(NC(=O)C2CC(c3ccc(F)cc3)=NO2)c1 (stereo not given)
EC50 [2]: > 100 µM (inactive)

Cc1ccc(C(C)(C)C)cc1S(=O)(=O)Nc1nc2ccccc2nc1Cl
EC50 [3]: 6.68 µM (active) | IC50 [4]: 6.04 µM (active) | EC50 [5]: 31.4 µM (active) | IC50 [6]: 12.9 µM (active)

C(#Cc1ccccc1)C[N+]1(CC#Cc2cccc3ccccc23)CCCC1
EC50 [7]: > 150 µM (inconclusive) | EC50 [8]: > 38 µM (not active) | AC50 [9]: 6.21 µM (active) | AC50 (INS1): 6.44 µM (active) | IC50 (Protein Wnt-3a): 5.07 µM (active) | AC50 [10]: 15.2 µM (active)

CCCCOc1ccc(CONS(=O)(=O)c2ccc(NC(C)=O)cc2)cc1Cl
IC50 [11]: 4.47 µM (active)

CCCCCCCCn1c(=O)c(C(=O)OC)c(N)c2ccccc21
AC50 (INS1): 5.55 µM (active) | IC50 [11]: 6.4 µM (active)

CCOc1ccc(/N=c2\scc(-c3ccc(OC)cc3)n2CCO)cc1
IC50 [4]: 3.31 µM (active) | EC50 [5]: > 53 µM (inactive) | IC50 [6]: > 20 µM (inactive)

O=C(Nc1nc2ccsc2c(=O)s1)c1cccs1
EC50 [2]: > 100 µM (inactive)
